Numbering of substitutions follows the chain as printed.
Experiments:
Type in all cases: biochemical
[1] = target: T1, Cab1p (yeast PanK) (Saccharomyces cerevisiae, UniProt Q04430); test: radioactive pantothenate kinase assay, double reciprocal plots; details: competitive with pantothenate; 2.5 mM ATP, 2.5 mM MgCl2, pH 7.4, 30 °C; enzyme source for Ki not restated (yeast extract as for Km)
T1 construct: gene CAB1; native untagged enzyme in cell-free extract of wild-type yeast
T1 sequence (Q04430 1-367): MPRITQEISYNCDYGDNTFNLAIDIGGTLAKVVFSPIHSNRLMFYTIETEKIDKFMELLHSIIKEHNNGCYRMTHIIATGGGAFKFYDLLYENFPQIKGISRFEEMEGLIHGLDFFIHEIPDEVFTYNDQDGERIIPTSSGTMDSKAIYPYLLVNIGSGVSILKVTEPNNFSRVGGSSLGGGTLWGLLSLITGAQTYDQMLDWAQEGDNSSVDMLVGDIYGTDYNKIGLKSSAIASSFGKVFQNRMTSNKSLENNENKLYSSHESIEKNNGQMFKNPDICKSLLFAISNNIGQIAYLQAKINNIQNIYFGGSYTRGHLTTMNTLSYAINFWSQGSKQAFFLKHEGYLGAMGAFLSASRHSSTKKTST

[2] = target: T2, His6-CAB1 (Saccharomyces cerevisiae, UniProt Q04430, G351S); test: radioactive pantothenate kinase assay; details: 50 µM 14C-pantothenate, 2.5 mM ATP, 2.5 mM MgCl2, pH 7.4
T2 sequence (Q04430 1-367 G351S): T1 sequence (Q04430 1-367) with G351S

[3] = target: T3, His6-CAB1 (Saccharomyces cerevisiae, UniProt Q04430); test: radioactive pantothenate kinase assay; details: 50 µM 14C-pantothenate, 2.5 mM ATP, 2.5 mM MgCl2, pH 7.4
T3 sequence (Q04430 1-367): T1 sequence (Q04430 1-367)

[4] = target: T3, His6-CAB1; test: Kinase-Glo ATP depletion and LC-MS of phosphorylated product; details: 10 µM compound, 100 µM ATP, no pantothenate, 10 mM MgCl2, pH 7.4, room temperature
[5] = target: T3, His6-CAB1; test: Kinase-Glo luminescent assay; details: 10 µM compound, 100 µM pantothenate, 100 µM ATP, 10 mM MgCl2, pH 7.4, room temperature

In the case of `CC(CNC(=O)[C@H](O)C(C)(C)CO)C(=O)NCCc1ccccc1` (stereo partly drawn) [α-PanAm, (2 R)-2,4-dihydroxy-3,3-dimethyl-N-(2-methyl-3-oxo-3-(phenethylamino)propyl)butanamide], the Ki [1] is reported as 10.1 ± 0.85 µM, the relative enzyme activity [2] is reported as “PanK activities of purified His6-CAB1 and His6-cab1^G351S mutant proteins were measured” and the relative enzyme activity [3] is reported as “PanK activities of purified His6-CAB1 and His6-cab1^G351S mutant proteins were measured”. The “Kinase-Glo ATP depletion and LC-MS of phosphorylated product” value [4] was “detected the mass of phosphorylated α-PanAm (P-α-PanAm) in the presence of active Cab1”.
With `CSc1cccc(NC(=O)CCc2c(C)nc3c4cccnc4nn3c2C)c1` [NED7, 3-(2,4-dimethylpyrido-[2′,3′:3,4]pyrazolo[1,5-a]pyrimidin-3-yl)-N-(3-(methylthio)phenyl) propanamide] the “inhibition at 10 μM” value [5] was “resulted in increased luciferase activity in the presence of Cab1”.

Reference: paper PMC5660193, “The antimalarial activity of the pantothenamide α-PanAm is via inhibition of pantothenate phosphorylation” (Scientific Reports, 2017)
